Measured values as given in patent US12612409B2, “Pyrrolopyrimidines as CFTR potentiators” (Cystic Fibrosis Foundation, priority 2016, dated 2026).

What follows are compounds tested against T1, recombinant F508del V470 CFTR in Fischer rat thyroid (FRT) cells (Homo sapiens, UniProt P13569, DEL508-508) (assay: FRT ion flux assay of F508del CFTR potentiation). Details: FRT cells expressing F508del V470 CFTR, forskolin 20 uM, 27° C. pre-incubation.
T1 construct: expressed in transfected cells
Format: cell-based
Procedure: FRT Ion Flux Assay of F508del CFTR Potentiation
Fischer rat thyroid (FRT) cell lines stably expressing recombinant F508del V470 CFTR and halide-sensitive yellow fluorescent protein (Pedemonte et al., J. Clin. Invest. 115(9) 2564-71 (2005)) were seeded at 25,000 cells/well in 50 uL/well of culture medium into black-walled, clear bottom tissue-culture-treated 384-well plates (Corning, cat. no. 3712). After one day, the cells were pre-incubated at 27° C./5% CO2 for 16-24 hours. The cells were then washed with dPBS and treated with forskolin (20 uM) and test compound for 30 mi by addition of 20 uL of compound dilution buffer (dPBS containing forskolin and test compound). Plates were loaded into FLIPR384 fluorescence imaging plate reader (Molecular Devices). After an initial fluorescence reading, iodide buffer (25 uL) (composition (in mM): 137 NaI, 1.5 K2PO4, 8.1 NaH2PO4, 2.7 KCl, 0.5 MgCl2, 1 CaCl2) was added and a second fluorescence reading was made after approximately 21 seconds. Data treatment involved division of the second fluorescence reading by the initial fluorescence reading, then scaling of the resulting normalized endpoint fluorescence with respect to the responses for DMSO (0%) and a positive control potentiator (100%).

T1 sequence (P13569 with tags, fused parts or gaps DEL508-508): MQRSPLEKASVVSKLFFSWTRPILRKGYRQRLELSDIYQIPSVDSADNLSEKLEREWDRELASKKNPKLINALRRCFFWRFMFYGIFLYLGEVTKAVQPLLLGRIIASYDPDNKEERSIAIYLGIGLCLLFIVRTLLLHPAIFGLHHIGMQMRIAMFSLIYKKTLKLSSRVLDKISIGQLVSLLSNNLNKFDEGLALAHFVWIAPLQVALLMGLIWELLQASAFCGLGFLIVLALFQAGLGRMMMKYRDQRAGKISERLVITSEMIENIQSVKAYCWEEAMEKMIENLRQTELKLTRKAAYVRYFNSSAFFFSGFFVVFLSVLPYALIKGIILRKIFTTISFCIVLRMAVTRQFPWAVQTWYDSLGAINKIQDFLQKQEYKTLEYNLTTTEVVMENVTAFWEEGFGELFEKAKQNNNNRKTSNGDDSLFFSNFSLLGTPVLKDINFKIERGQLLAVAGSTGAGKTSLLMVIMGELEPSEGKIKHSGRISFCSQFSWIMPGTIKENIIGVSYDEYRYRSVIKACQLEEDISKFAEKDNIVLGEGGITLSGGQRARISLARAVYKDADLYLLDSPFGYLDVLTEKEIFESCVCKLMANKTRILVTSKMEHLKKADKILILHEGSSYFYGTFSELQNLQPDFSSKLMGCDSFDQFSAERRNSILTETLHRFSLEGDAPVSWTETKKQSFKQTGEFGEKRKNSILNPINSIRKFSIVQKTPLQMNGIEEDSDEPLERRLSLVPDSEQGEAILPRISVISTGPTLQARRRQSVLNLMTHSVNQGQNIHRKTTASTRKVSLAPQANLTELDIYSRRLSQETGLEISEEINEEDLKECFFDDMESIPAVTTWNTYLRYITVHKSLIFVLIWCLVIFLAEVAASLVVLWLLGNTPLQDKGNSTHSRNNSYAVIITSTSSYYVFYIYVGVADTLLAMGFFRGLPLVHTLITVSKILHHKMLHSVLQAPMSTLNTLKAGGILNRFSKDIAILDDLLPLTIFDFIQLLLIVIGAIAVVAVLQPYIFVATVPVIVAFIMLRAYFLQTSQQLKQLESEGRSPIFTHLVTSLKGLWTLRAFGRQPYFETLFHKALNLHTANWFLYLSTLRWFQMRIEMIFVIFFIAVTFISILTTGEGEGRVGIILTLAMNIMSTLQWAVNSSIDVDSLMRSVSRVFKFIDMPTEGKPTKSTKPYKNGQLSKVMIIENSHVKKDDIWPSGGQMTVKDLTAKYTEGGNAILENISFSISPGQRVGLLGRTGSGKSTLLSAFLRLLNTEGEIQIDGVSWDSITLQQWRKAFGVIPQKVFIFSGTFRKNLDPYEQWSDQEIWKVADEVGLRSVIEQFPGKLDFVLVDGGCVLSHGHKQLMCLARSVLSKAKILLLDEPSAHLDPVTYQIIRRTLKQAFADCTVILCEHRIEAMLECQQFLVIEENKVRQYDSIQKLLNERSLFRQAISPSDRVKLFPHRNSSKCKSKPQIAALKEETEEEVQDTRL

Structure (SMILES)	EC50 [nM]
Nc1ncnc2c1c(-c1ccc(Cl)cc1)c(Br)n2Cc1cn(-c2cccc(F)c2)nn1 [Example 319, 6-Bromo-5-(4-chlorophenyl)-7-{[1-(3-fluorophenyl)-1H-1,2,3-triazol-4-yl]methyl}-7H-pyrrolo[2,3-d]pyrimidin-4-amine]	194
Nc1ncnc2c1c(-c1ccc(Cl)cc1)cn2Cc1cn(-c2ccccc2F)cn1 [Example 265, 5-(4-Chlorophenyl)-7-{[1-(2-fluorophenyl)-1H-imidazol-4-yl]methyl}-7H-pyrrolo[2,3-d]pyrimidin-4-amine]	3880
CC(c1cnc(-c2ccccc2F)[nH]1)n1cc(-c2cccc3ccncc23)c2c(N)ncnc21 (centres unmarked) [Example 61, 7-{1-[2-(2-Fluorophenyl)-1H-imidazol-5-yl]ethyl}-5-(isoquinolin-8-yl)-7H-pyrrolo[2,3-d]pyrimidin-4-amine]	1480
CC(c1cnc(-c2ccccc2F)[nH]1)n1cc(-c2cn[nH]c2)c2c(N)ncnc21 (centres unmarked) [Example 71, 7-{1-[2-(2-Fluorophenyl)-1H-imidazol-5-yl]ethyl}-5-(1H-pyrazol-4-yl)-7H-pyrrolo[2,3-d]pyrimidin-4-amine]	129
CC(c1cc(-c2ccccc2F)no1)n1cc(-c2ccc3c(c2)C(=O)N(C)C3)c2c(N)ncnc21 (centres unmarked) [Example 101, 6-(4-Amino-7-{1-[3-(2-fluorophenyl)-1,2-oxazol-5-yl]ethyl}-7H-pyrrolo[2,3-d]pyrimidin-5-yl)-2-methyl-2,3-dihydro-1H-isoindol-1-one]	4060
Nc1ncnc2c1c(C1CN(S(=O)(=O)CC3CC3)C1)cn2Cc1cn(-c2ccccc2F)nn1 [Example 293, 5-{1-[(Cyclopropylmethyl)sulfonyl]azetidin-3-yl}-7-{[1-(2-fluorophenyl)-1H-1,2,3-triazol-4-yl]methyl}-7H-pyrrolo[2,3-d]pyrimidin-4-amine]	1890
Nc1ncnc2c1c(-c1ccc(Cl)cc1)cn2Cc1cn(C2CCCC2)nn1 [Example 281, 5-(4-Chlorophenyl)-7-[(1-cyclopentyl-1H-1,2,3-triazol-4-yl)methyl]-7H-pyrrolo[2,3-d]pyrimidin-4-amine]	170
CC(c1cc(-c2ccccc2F)no1)n1cc(-c2cc3cnccc3s2)c2c(N)ncnc21 (centres unmarked) [Example 106, 7-{1-[3-(2-Fluorophenyl)-1,2-oxazol-5-yl]ethyl}-5-(thieno[3,2-c]pyridin-2-yl)-7H-pyrrolo[2,3-d]pyrimidin-4-amine]	2080
CC(c1cnc(-c2ccccc2F)[nH]1)n1cc(-c2cnc3[nH]ccc3c2)c2c(N)ncnc21 (centres unmarked) [Example 62, 7-{1-[2-(2-Fluorophenyl)-1H-imidazol-5-yl]ethyl}-5-(7H-pyrrolo[2,3-b]pyridin-5-yl)-7H-pyrrolo[2,3-d]pyrimidin-4-amine]	2220
CC(c1cc(-c2ccccc2F)no1)n1cc(-c2ccc3c(c2)OCCO3)c2c(N)ncnc21 (centres unmarked) [Example 102, 5-(2,3-Dihydro-1,4-benzodioxin-6-yl)-7-{1-[3-(2-fluorophenyl)-1,2-oxazol-5-yl]ethyl}-7H-pyrrolo[2,3-d]pyrimidin-4-amine]	322
CC(c1cc(-c2ccccc2F)no1)n1cc(-c2ccnc3[nH]ccc23)c2c(N)ncnc21 (centres unmarked) [Example 103, 7-{1-[3-(2-Fluorophenyl)-1,2-oxazol-5-yl]ethyl}-5-(1H-pyrrolo[2,3-b]pyridin-4-yl)-7H-pyrrolo[2,3-d]pyrimidin-4-amine]	5150
COc1cc2c(cc1-c1cn(C(C)c3cnc(-c4ccccc4F)[nH]3)c3ncnc(N)c13)CCC2 (centres unmarked) [Example 69, 7-{1-[2-(2-Fluorophenyl)-1H-imidazol-5-yl]ethyl}-5-(6-methoxy-2,3-dihydro-1H-inden-5-yl)-7H-pyrrolo[2,3-d]pyrimidin-4-amine]	915

Second part, the compound after the results:

EC50 [nM]	Structure (SMILES)
17.2	CCC(c1cn(-c2ccc(F)cc2F)nn1)n1cc(-c2cncnc2OC)c2c(N)ncnc21 (centres unmarked) [Example 246, 7-{1-[1-(2,4-Difluorophenyl)-1H-1,2,3-triazol-4-yl]propyl}-5-[4-methoxypyrimidin-5-yl]-7H-pyrrolo[2,3-d] pyrimidin-4-amine]
320	Cn1ncc2ccc(-c3cn(Cc4cn(-c5ccccc5F)nn4)c4ncnc(N)c34)cc21 [Example 73, 7-{[1-(2-Fluorophenyl)-1H-1,2,3-triazol-4-yl]methyl}-5-(1-methyl-1H-indazol-6-yl)-7H-pyrrolo[2,3-d]pyrimidin-4-amine]
488	CC(c1cn(-c2ccccc2F)nn1)n1cc(-c2ccc3c(cnn3C)c2)c2c(N)ncnc21 (centres unmarked) [Example 95, 7-{1-[1-(2-Fluorophenyl)-1H-1,2,3-triazol-4-yl]ethyl}-5-(1-methyl-1H-indazol-5-yl)-7H-pyrrolo[2,3-d]pyrimidin-4-amine]
1560	COc1cc(-c2cn(Cc3cn(-c4ccccc4F)nn3)c3ncnc(N)c23)ccc1C#N [Example 84, 4-(4-Amino-7-{[1-(2-fluorophenyl)-1H-1,2,3-triazol-4-yl]methyl}-7H-pyrrolo[2,3-d]pyrimidin-5-yl)-2-methoxybenzonitrile]
479	CCC(c1cn(-c2ccccc2F)nn1)n1cc(-c2cc[nH]n2)c2c(N)ncnc21 (single isomer, unassigned; enantiomer 1) [Example 147, 7-{1-[1-(2-Fluorophenyl)-1H-1,2,3-triazol-4-yl]propyl}-5-(1H-pyrazol-3-yl)-7H-pyrrolo[2,3-d]pyrimidin-4-amine, enantiomer 1]
1190	CCC(c1cn(-c2ccccc2F)nn1)n1cc(-c2cnc(N(C)C)nc2)c2c(N)ncnc21 (single isomer, unassigned; enantiomer 2) [Example 146, 5-[2-(Dimethylamino)pyrimidin-5-yl]-7-{1-[1-(2-fluorophenyl)-1H-1,2,3-triazol-4-yl]propyl}-7H-pyrrolo[2,3-d]pyrimidin-4-amine, enantiomer 2]
457	CCC(c1nnn(-c2ccc(F)cc2F)c1C)n1cc(-c2cnc(C(F)(F)F)nc2)c2c(N)ncnc21 (single isomer, unassigned) [Example 190]
2200	CC(c1cn(-c2ccccc2F)nn1)n1cc(C2COC2)c2c(N)ncnc21 (centres unmarked) [Example 250, 7-{1-[1-(2-Fluorophenyl)-1H-1,2,3-triazol-4-yl]ethyl}-5-(oxetan-3-yl)-7H-pyrrolo[2,3-d] pyrimidin-4-amine]
3780	Nc1ncnc2c1c(-c1cnc3[nH]ccc3c1)cn2Cc1cn(-c2ccccc2F)nn1 [Example 80, 7-{[1-(2-Fluorophenyl)-1H-1,2,3-triazol-4-yl]methyl}-5-(7H-pyrrolo[2,3-b]pyridin-5-yl)-7H-pyrrolo[2,3-d]pyrimidin-4-amine]
277	CC(c1cn(-c2ccccc2F)nn1)n1cc(-c2cnc3ccccc3c2)c2c(N)ncnc21 (centres unmarked) [Example 100, 7-{1-[1-(2-Fluorophenyl)-1H-1,2,3-triazol-4-yl]ethyl}-5-(quinolin-3-yl)-7H-pyrrolo[2,3-d]pyrimidin-4-amine]
1300	CCC(c1cn(-c2ccc(OC)nc2)nn1)n1cc(-c2cnc(C(F)(F)F)nc2)c2c(N)ncnc21 (single isomer, unassigned; enantiomer 2) [Example 310, 7-{1-[1-(6-Methoxypyridin-3-yl)-1H-1,2,3-triazol-4-yl]propyl}-5-[2-(trifluoromethyl)pyrimidin-5-yl]-7H-pyrrolo[2,3-d]pyrimidin-4-amine, enantiomer 2]
732	CCC(c1cn(-c2ccccc2F)nn1)n1cc(-c2cnc(C(F)F)nc2)c2c(N)ncnc21 (single isomer, unassigned; enantiomer 2) [Example 144, 5-[2-(Difluoromethyl)pyrimidin-5-yl]-7-{1-[1-(2-fluorophenyl)-1H-1,2,3-triazol-4-yl]propyl}-7H-pyrrolo[2,3-d]pyrimidin-4-amine, enantiomer 2]
850	CCC(c1c[nH]c(-c2ccc(F)cc2F)n1)n1cc(-c2cnc(C(F)(F)F)nc2)c2c(N)ncnc21 (single isomer, unassigned; enantiomer 2) [Example 178, 7-{1-[2-(2,4-Difluorophenyl)-2H-imidazol-4-yl]propyl}-5-[2-(trifluoromethyl)pyrimidin-5-yl]-7H-pyrrolo[2,3-d]pyrimidin-4-amine, enantiomer 2]
5.41	CCC(c1cn(-c2ccccc2F)nn1)n1cc(-c2nccnc2OC)c2c(N)ncnc21 (centres unmarked) [Example 251, 7-{1-[1-(2-Fluorophenyl)-1H-1,2,3-triazol-4-yl]propyl}-5-(3-methoxypyrazin-2-yl)-7H-pyrrolo [2,3-d]pyrimidin-4-amine]
111	CC(=O)c1ccc(-c2cn(C(C)c3cn(-c4ccccc4F)nn3)c3ncnc(N)c23)s1 (centres unmarked) [Example 91, 1-[5-(4-Amino-7-{1-[1-(2-fluorophenyl)-1H-1,2,3-triazol-4-yl]ethyl}-7H-pyrrolo[2,3-d]pyrimidin-5-yl)thiophen-2-yl]ethanone]
1380	Cn1ncc2c(-c3cn(Cc4cn(-c5ccccc5F)nn4)c4ncnc(N)c34)cccc21 [Example 78, 7-{[1-(2-Fluorophenyl)-1H-1,2,3-triazol-4-yl]methyl}-5-(1-methyl-1H-indazol-4-yl)-7H-pyrrolo[2,3-d]pyrimidin-4-amine]
2420	CC(c1cn(-c2ccccc2F)nn1)n1cc(-c2cccc3c2cnn3C)c2c(N)ncnc21 (centres unmarked) [Example 92, 7-{1-[1-(2-Fluorophenyl)-1H-1,2,3-triazol-4-yl]ethyl}-5-(1-methyl-1H-indazol-4-yl)-7H-pyrrolo[2,3-d]pyrimidin-4-amine]
